# Results as given in PMC6368403, “Identification of a bilirubin receptor that may mediate a component of cholestatic itch” (eLife, 2019).
# Where “and” joins values, the source holds several entries; their conditions need not be identical. Identical values can stand only once. Numbered stars: 1 amine (or outer) side, 2 acyl side, 3 side chain; on linkers, the order of the positions; unused ones are H or OH. Bridge positions count the residues as written; N and C are the ends. Square brackets hold non-standard residues; d marks the D form. Peptide text beside a SMILES is read from it. X1 = CC(=O)NC(C(=O)OC(C(C)C)C(N[*:1])C(=O)[*:2])C(O)C(C)C; PhLac = O=C(O)[CH](O)Cc1ccccc1; NMeT = CN[CH](C(=O)O)[CH](C)O; NMeA = CN[CH](C)C(=O)O; NMeDha = C=C(NC)C(=O)O
# Legend:
# mice = assay: Scratching bouts after subcutaneous injection into the nape of the neck / back; assay type: in vivo, mouse; conditions: for Scratching bouts binned according to 5 min intervals (time course of itch behavior): one column per mouse, values of a mouse sum to 1 (Fig 1B)
# Procedure: All applicable behavioral tests were performed and analysed with the experimenter blind to genotype. […] On the day before the experiment, animals were placed in the test chamber for 30 min before being subjected to a series of three mock injections with 5 min break periods in between. On the day of the experiment, animals were first allowed to acclimatize to the test chamber for 10 min before injection. […] A bout of scratching was defined as a continuous scratching movement with either hindpaw directed at the area of the injection site. In the cheek injection model, a wipe was defined as a single forepaw stroking the site of the injection. Use of both forepaws on the face or cheek was considered as grooming behavior. […] For H1R block, 30 mg/kg of cetirizine HCl (pH 7.4) was given intraperitoneally thirty minutes prior to injection of bilirubin. Licking behavior was quantified in seconds and identified as the licking of the toes or footpad of the hind paw site of injection that was neither preceded nor followed by licking of any other portion of the body.
# MRGPRA1 = target: T1, MRGPRA1 (Mus musculus, UniProt Q91WW5); assay: Ca2+ imaging and concentration-Ca2+ response (EC50) in HEK293 cells expressing MRGPRA1; assay type: cell-based; conditions: for Effect on bilirubin-induced calcium responses: MRGPRA1 cells pre-incubated with 10 µM inhibitor for 30 min, 50 µM bilirubin; for Ca2+ response (concentration-response curve): MRGPRA1, triplicate wells (Fig 2D)
# T1 construct: expressed in transfected cells
# T1 sequence (Q91WW5 1-304): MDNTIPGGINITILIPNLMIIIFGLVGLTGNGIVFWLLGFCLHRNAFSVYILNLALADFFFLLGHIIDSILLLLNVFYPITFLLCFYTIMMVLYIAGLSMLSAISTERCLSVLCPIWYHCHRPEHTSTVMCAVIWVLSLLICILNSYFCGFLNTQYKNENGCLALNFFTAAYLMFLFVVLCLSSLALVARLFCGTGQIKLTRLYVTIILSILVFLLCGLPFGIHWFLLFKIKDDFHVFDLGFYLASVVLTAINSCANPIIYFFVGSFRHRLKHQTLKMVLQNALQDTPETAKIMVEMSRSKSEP
# Procedure: (§1) All cultured cells were maintained in DMEM supplemented with 10% FBS and 1% Penicillin/Streptomycin at 37°C, 5% CO2. All data included were generated from cells tested for mycoplasma and found to be negative. Cells were imaged in calcium imaging buffer (CIB; 10 mM HEPES, 1.2 mM NaHCO3, 130 mM NaCl, 3 mM KCl, 2.5 mM CaCl2, 0.6 mM MgCl2, 20 mM glucose, and 20 mM sucrose at pH 7.4 and 290–300 mOsm). To monitor changes in intracellular [Ca^2+] ([Ca^2+]i), cells were loaded with either Fura 2-AM (HEK293 cells) or Fluo 4-AM (DRG neurons and mast cells) for 30 min in the dark at 37°C in CIB just prior to imaging. With Fura 2-AM, emission at 510 nm was monitored from excitation at both 340 nm and 380 nm. With Fluo 4-AM, emission at 520 nm was monitored from excitation at 488 nm. Cells were identified as responding if the intracellular [Ca^2+] rose by either 50% compared to baseline or 50% compared to the [Ca^2+]i change assayed during addition of 50 mM KCl (neurons only). Damaged, detached, high-baseline, and motion-activated cells were excluded from analysis.
# (§2) In initial screens, HEK293 cells stably expressing the murine G-protein alpha-subunit Gα15, a unique Gα protein that non-selectively couples a large variety of GPCRs to phospholipase C ^30, were plated on poly-D-lysine-coated coverslips and transiently transfected with constructs encoding the MRGRPR of interest. 12–24 hr later, cells were loaded with the Fura 2-AM. Unless otherwise specified, compounds were perfused into the imaging chamber for approximately thirty seconds after a baseline period was established. Response was then monitored at 5 s intervals for an additional 60 s.
# (§3) HEK293 cells stably expressing either MRGPRA1, MRGPRX4, and MRGRPC11 were seeded in poly-D-lysine-coated 96-well plates at 10,000 cells/well. Cells were loaded with Fura 2–AM, washed twice, and maintained in CIB. Haem metabolites were freshly dissolved in DMSO in dim light and then diluted into a buffer comprised of 20 mM Tris and 150 mM NaCl at pH 8.8. Potential changes in pH were evaluated prior to each experiment. EC50 values were determined from dose-responses performed in triplicate, repeated 2–4 times. To determine potential antagonism by QWF against bilirubin, cells were treated with varying doses of QWF for 1 min in CIB prior to application of agonist.
# (§4) HEK293 stable cell lines expressing GFP-tagged MRGPRA3, MRGPRC11, MRGPRD, MRGPRX1, and MRGPRX2 were generated in previously described reports ([Liu et al., 2009]; [Liu et al., 2012]; [McNeil et al., 2015]). Briefly, plasmids containing the receptor of interest were transfected into HEK cells using Lipofectamine 3000. After 3 days, cells were then selected using 0.5 mg/mL G418. After 3 weeks, monoclonal colonies were established and each the highest expressing clones were identified. For this study, Mrgpra1 and MRGPRX4 were inserted into pEGFP-N1 and transfected into HEK293 cells. MRGPR-positive cells were selected using 0.5 mg/mL G418 for three weeks, after which GFP-positive cells were sorted by FACS and monoclonally expanded. Two lines expressing similar levels of MRGPRA1 and MRGPRX4, as measured by GFP fluorescence, were selected for study.
# MRGPRX4 = target: T2, MRGPRX4 (Homo sapiens, UniProt Q96LA9); assay: Ca2+ imaging and concentration-Ca2+ response (EC50) in HEK293 cells expressing MRGPRX4; assay type: cell-based; conditions: for Effect on bilirubin-induced calcium responses: MRGPRX4 cells pre-incubated with 10 µM inhibitor for 30 min, 50 µM bilirubin; for Ca2+ response (concentration-response curve): MRGPRX4, triplicate wells (Fig 2I)
# T2 construct: expressed in transfected cells
# Procedure: as §1, §2, §3, §4
# T2 sequence (Q96LA9 whole entry): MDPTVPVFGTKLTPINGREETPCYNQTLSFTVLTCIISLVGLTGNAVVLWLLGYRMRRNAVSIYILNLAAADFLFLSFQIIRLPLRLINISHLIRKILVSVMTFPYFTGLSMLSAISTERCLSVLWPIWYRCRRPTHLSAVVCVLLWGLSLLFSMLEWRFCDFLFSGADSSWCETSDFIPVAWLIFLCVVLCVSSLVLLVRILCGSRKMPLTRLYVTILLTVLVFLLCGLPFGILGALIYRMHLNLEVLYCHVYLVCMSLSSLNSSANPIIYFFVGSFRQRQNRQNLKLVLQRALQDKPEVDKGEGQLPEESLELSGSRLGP
structure (smiles),measurement,setting,value
"CCN(CC)CCCC(C)Nc1ccnc2cc(Cl)ccc12 (stereo not shown) [Chloroquine, chloroquine]",Scratching bouts binned according to 5 min intervals (time course of itch behavior),mice; time 5 min,0.201 and 0.03846 and 0.1149 and 0.1078 and 0.05405 and 0 (2×) and 0.1374 and 0.04255 and 0.2424 and 0.1529
same,Scratching bouts binned according to 5 min intervals (time course of itch behavior),mice; time 10 min,0.2353 and 0.1065 and 0.2213 and 0.1121 and 0.1459 and 0.2993 and 0.3626 and 0.4113 and 0.6263 and 0.2639 and 0.4204
same,Scratching bouts binned according to 5 min intervals (time course of itch behavior),mice; time 15 min,0.348 and 0.3787 and 0.1447 and 0.2155 and 0.3676 and 0.3673 and 0.4011 and 0.3191 and 0 and 0.5 and 0.2548
same,Scratching bouts binned according to 5 min intervals (time course of itch behavior),mice; time 20 min,0.1618 and 0.2426 and 0.2681 and 0.2284 and 0.1838 and 0.1837 and 0.0989 and 0.09929 and 0.1212 and 0 (2×)
same,Scratching bouts binned according to 5 min intervals (time course of itch behavior),mice; time 25 min,0.05392 and 0.142 and 0.1447 and 0.1336 and 0.09189 and 0.1361 and 0 (3×) and 0.2361 and 0.172
same,Scratching bouts binned according to 5 min intervals (time course of itch behavior),mice; time 30 min,0 (4×) and 0.09172 and 0.1064 and 0.2026 and 0.1568 and 0.01361 and 0.1277 and 0.0101
"NCCc1c[nH]cn1 [Histamine, histamine]",Scratching bouts binned according to 5 min intervals (time course of itch behavior),mice; time 5 min,0.02985 and 0.0102 and 0 (10×) and 0.134
same,Scratching bouts binned according to 5 min intervals (time course of itch behavior),mice; time 10 min,0.3881 and 0.5714 and 0.08333 and 0.1818 and 0.3333 and 0.527 and 0.02857 and 0.1765 and 0.2143 and 0.1923 and 0.3918 and 0.5938 and 0.4348
same,Scratching bouts binned according to 5 min intervals (time course of itch behavior),mice; time 15 min,0.2985 and 0.07143 and 0.8333 and 0.6545 and 0.625 and 0.3919 and 0.4286 and 0.2353 and 0.3367 and 0.3846 and 0.1031 and 0 and 0.5435
same,Scratching bouts binned according to 5 min intervals (time course of itch behavior),mice; time 20 min,0.2687 and 0.1633 and 0 (2×) and 0.1636 and 0.04167 and 0.08108 and 0.2286 and 0.4118 and 0.08163 and 0.1154 and 0.2344 and 0.02174
same,Scratching bouts binned according to 5 min intervals (time course of itch behavior),mice; time 25 min,0.01493 and 0.1837 and 0.08333 and 0 (4×) and 0.3143 and 0.1765 and 0.1939 and 0.3077 and 0.2474 and 0.1719
same,Scratching bouts binned according to 5 min intervals (time course of itch behavior),mice; time 30 min,0 (11×) and 0.1735 and 0.1237
"COc1ccc2c(c1)CC[C@@H]1[C@@H]2CC[C@]2(C)[C@@H](NCCCCCCN3C(=O)C=CC3=O)CC[C@@H]12 [U73122, reference compound]",Effect on bilirubin-induced calcium responses,MRGPRA1,abolished bilirubin-induced calcium responses
same,Effect on bilirubin-induced calcium responses,MRGPRX4,inhibited bilirubin-induced calcium responses
"C=C1C(=O)NC(C)C(=O)N(C)C(C)C(=O)NC(C(OC(=O)C(NC(C)=O)C(O)C(C)C)C(C)C)C(=O)N(C)C(C(C)OC)C(=O)OC(C)C(NC(C)=O)C(=O)OC(Cc2ccccc2)C(=O)N1C (stereo not shown) [YM-254890, reference compound] (Ac-T[PhLac][NMeDha]A[NMeA][X1][NMeT](Me); ester 1-C; configuration not given here)",Effect on bilirubin-induced calcium responses,MRGPRA1,abolished bilirubin-induced calcium responses
same,Effect on bilirubin-induced calcium responses,MRGPRX4,inhibited bilirubin-induced calcium responses
C=CC1=C(C)/C(=C/C2=NC(=C\c3[nH]c(/C=C4\NC(=O)C(C)=C4C=C)c(C)c3CCC(=O)O)/C(CCC(=O)O)=C2C)NC1=O [biliverdin],Scratching behavior,mice; metabolite injected into mice (Fig 1D),did not induce scratching
same,Ca2+ response (concentration-response curve),MRGPRA1; [Ligand] 7.8125e-6 M,0
same,Ca2+ response (concentration-response curve),MRGPRA1; [Ligand] 1.5625e-5 M,0
same,Ca2+ response (concentration-response curve),MRGPRA1; [Ligand] 3.125e-5 M,0
same,Ca2+ response (concentration-response curve),MRGPRA1; [Ligand] 6.25e-5 M,0
same,Ca2+ response (concentration-response curve),MRGPRA1; [Ligand] 0.000125 M,0
same,Ca2+ response (concentration-response curve),MRGPRA1; [Ligand] 0.00025 M,0
same,Ca2+ response (concentration-response curve),MRGPRA1; [Ligand] 0.0005 M,0
same,Ca2+ response (concentration-response curve),MRGPRA1; [Ligand] 0.001 M,0
same,Ca2+ response (concentration-response curve),MRGPRX4; [Ligand] 7.8125e-6 M,0
same,Ca2+ response (concentration-response curve),MRGPRX4; [Ligand] 1.5625e-5 M,0
same,Ca2+ response (concentration-response curve),MRGPRX4; [Ligand] 3.125e-5 M,0
same,Ca2+ response (concentration-response curve),MRGPRX4; [Ligand] 6.25e-5 M,0
same,Ca2+ response (concentration-response curve),MRGPRX4; [Ligand] 0.000125 M,0
same,Ca2+ response (concentration-response curve),MRGPRX4; [Ligand] 0.00025 M,0
same,Ca2+ response (concentration-response curve),MRGPRX4; [Ligand] 0.0005 M,0
same,Ca2+ response (concentration-response curve),MRGPRX4; [Ligand] 0.001 M,0
O=C(O)COCCN1CCN(C(c2ccccc2)c2ccc(Cl)cc2)CC1 (stereo not shown) [cetirizine],Effect on scratching of mice injected with bilirubin,mice; 30 mg/kg i.p. 30 min prior to bilirubin at the nape,failed to alleviate scratching behavior
